From patent US20250115581A1, “SUBSTITUTED PIPERIDINES AS CK1A DEGRADERS” (Monte Rosa Therapeutics, Inc., priority 2022, published 2025) come the findings set out here.

The target in one experiment is T1, CK1α (Homo sapiens, UniProt P48729+Q96SW2).
T1 construct: HEK293 clonal lines with CRISPR KI HiBiT tag on CSNK1A1; host or cells: HEK293 clonal line, CRISPR knock-in HiBiT at the CSNK1A1 locus, stably expressing LgBiT
The experiment in a line: CK1α NanoBit Assay (HiBiT-tagged CSNK1A1 in HEK293 cells, luminescence). Format: cell-based. As to conditions: 24 h. The protocol: HEK293 clonal lines with CRISPR KI HiBiT tag on CSNK1A1 and stably expressing LgBiT protein were obtained from Promega (Madison, WI). Cells were plated at 5000 cells per well using Multiflo (BioTek) in 384-well white solid bottom plates (Corning, 3570BC) in 25 μl volume in DMEM media (DMEM, high glucose, HEPES, no phenol red (ThermoFisher Scientific, 21063029)) containing 10% FBS (Corning, 35-075-CV), 1% Penicillin/Streptomycin ((ThermoFisher Scientific, 15140-122), and 0.2% Endurazine (Nano-Glo Endurazine Live Cell Substrate (Promega, N2571)). Cells were incubated for 16 hours at 37° C., 5% CO2. Depending on experiment 25 or 75 nL of a compound at 10 mM were added into the plate using an Echo® 650 liquid handler (Labcyte) to achieve final concentration of 10 or 30 μM in wells. Cells were incubated at 37° C., 5% CO2 for 24 hours and then signal was read on a Pherastar FSX using “LUM plus” optic module.
Data analysis was performed in Scinamic (Scinamic, Cambridge, MA). Luminescence response (R) was calculated by the formula: response=100*(S−N)/(P−N) where S is the signal of the well, N and P the mean negative and positive control values respectively of the same plate. The luminescence response was then fitted in Scinamic using a 3-parameter agonist logistic fit (hillslope=1, EC50>0, top/bottom unconstrained).
DC50 data are reported in Table 2 for compounds in Table 1. In Table 2 below, According to the code, A represents a DC50 value of ≤0.1 μM, B represents a DC50 value >0.1 μM and ≤1 μM, C represents an DC50 value >1 μM.
For orientation: With HiBiT, luminescence reflects the tagged protein that the partner subunit can reach.

Another experiment has as its target CRBN/DDB1 (Homo sapiens, UniProt Q96SW2). The experiment in a line: HTRF binding assay (displacement of Cy5-thalidomide probe from CRBN/DDB1). Conditions: CRBN/DDB1 2.5 nM, Cy5-Thalidomide 100 nM, 30 min; geometric mean; read-out: HTRF_Thali_Disp_DR_geo_IC50. From the text:
Binding of test compounds to CRBN/DDB1 was monitored in an HTRF assay using 1-[5-({2-[2-(2-{[2-(2,6-dioxopiperidin-3-yl)-1,3-dioxo-2,3-dihydro-1H-isoindol-4-yl]oxy}acetamido)ethoxy]ethyl}carbamoyl)pentyl]-3,3-dimethyl-2-[(1E,3E)-5-[(2E)-1,3,3-trimethyl-5-sulfo-2,3-dihydro-1H-indol-2-ylidene]penta-1,3-dien-1-yl]-3H-indol-1-ium-5-sulfonate as a fluorescent probe. In this assay, compounds displace the fluorescently labeled thalidomide-based probe bound to CRBN and fluorescence is monitored with increasing compound concentration. Assays were conducted in Greiner white 384 well HiBase plates (Cat. No 784075-25) in 10 μL total volume. A one pot detection solution of CRBN/DDB1 (2.5 nM), anti-His Terbium Cryptate Gold (1×, PerkinElmer Cat. #: 61HI2TLB), and Cy5-Thalidomide (100 nM, Tenova Cat.: T52461) was prepared in 20 mM HEPES, 20 mM NaCl, 0.2 mM TCEP, 0.2 mM EDTA, and 0.005% Tween20 was dispensed to each assay plate. Test compounds were stored in dry, ambient temperatures at 10 mM. A 10-point, 1:3 dilution series was prepared from 10 mM stock concentrations in Echo-compatible LDV plates. 10 nL of each compound dilution series was dispensed into assays wells using an Echo 650 (Labcyte inc. USA). 10 nL of 10 mM lenalidomide (Selleckchem Cat no. S1029) was transferred into the active-control wells for the assay and 10 nL of DMSO was transferred into the negative control wells. The assay was then allowed to incubate for 30 min at ambient temperature after transferring the test compounds. Plate measurements were taken on a Pherastar FSX (BMG Labtech, Germany) using the HTRF Red filter (Ex. 337 nm, em1: 620 nm, em2: 665 nm) (Flashes: 50, Integration time: 60-400 μs, Z-height: 10 mm, Ratio-multiplier: 10,000). Analysis, HTRF ratio and IC50 values were derived using KNIME analytics (KNIME Zurich) transformation and fitting within Collaborative Drug Discovery (Collaborative Drug Discovery USA) using a 4-parameter logistic fit. HTRF ratio calculation was performed using the following formula: […]
where em665 nm represents the measured emission at 665 nm upon excitation at 337 nm and em620 nm the measured emission at 620 nm upon excitation at 337 nm. The 4 parameter logistic fitting model was performed using the following formula: […]
where Y represents the HTRF ratio response (as defined previously), X the compound concentration in μM, Ymin the minimum response plateau, Ymax the maximum response plateau, IC50 the concentration of […] that gives a response half way between Ymin and Ymax and HillSlope the steepness of the family of curves. No fitting model constraints was applied on Ymin, or Ymax whilst IC50>0 and −0.5>HillSlope>−3 Cheng-Prusoff transformation
Ki values were derived from the geometric mean of the IC50 values using the Cheng-Prusoff transformation:
where [L] represents the concentration of fluorescent probe in […], Kd the affinity (binding constant) of the fluorescent probe in units of μM and IC50 the concentration of agonist that gives a response halfway between Ymin and Ymax (as described in 1.2.1)
Analysis and IC50 values were derived using KNIME analytics (KNIME, Zurich) transformation and fitting within Collaborative Drug Discovery (Collaborative Drug Discovery, USA) as described in 1.2.1. Ki values were derived from the geometric mean of the IC50 values using the Cheng-Prusoff transformation as described in 2.2.2. Data was visualized in GraphPad Prism 8.1.2 (GraphPad, USA) and reported as mean and standard deviation. Microsoft Office Excel 2012 (Redmond, WA) was used for calculation of mean and standard deviation.
IC50 data are reported in Table 3 for compounds in Table 1. In Table 3 below, According to the code, A represents a IC50 value of ≤0.1 μM, B represents a IC50 value >0.1 μM and ≤1 μM, C represents an IC50 value >1 μM.

SMILES strings stand for the structures. Some results are limits rather than exact numbers.

T1 sequence (P48729 whole entry): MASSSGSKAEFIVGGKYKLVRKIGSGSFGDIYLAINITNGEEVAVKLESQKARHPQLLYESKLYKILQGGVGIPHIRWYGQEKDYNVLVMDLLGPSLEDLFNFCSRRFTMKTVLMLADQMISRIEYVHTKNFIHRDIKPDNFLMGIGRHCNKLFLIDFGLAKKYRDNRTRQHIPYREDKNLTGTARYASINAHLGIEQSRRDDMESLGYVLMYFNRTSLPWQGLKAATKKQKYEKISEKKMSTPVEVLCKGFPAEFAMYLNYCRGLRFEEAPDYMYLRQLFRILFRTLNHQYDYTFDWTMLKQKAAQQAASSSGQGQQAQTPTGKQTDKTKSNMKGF
T1 sequence (Q96SW2 whole entry): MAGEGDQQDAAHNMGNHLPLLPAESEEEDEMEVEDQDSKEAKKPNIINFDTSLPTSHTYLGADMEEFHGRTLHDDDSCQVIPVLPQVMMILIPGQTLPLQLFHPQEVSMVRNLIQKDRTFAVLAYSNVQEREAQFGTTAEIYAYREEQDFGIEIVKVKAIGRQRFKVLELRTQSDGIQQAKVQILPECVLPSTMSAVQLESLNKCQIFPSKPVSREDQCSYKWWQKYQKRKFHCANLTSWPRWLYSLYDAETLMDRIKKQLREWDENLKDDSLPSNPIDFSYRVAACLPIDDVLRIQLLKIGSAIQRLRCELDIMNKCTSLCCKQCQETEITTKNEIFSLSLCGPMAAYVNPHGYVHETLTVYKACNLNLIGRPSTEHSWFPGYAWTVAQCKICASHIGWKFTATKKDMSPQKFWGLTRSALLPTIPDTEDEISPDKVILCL
T1 sequence (Q16531 whole entry partner): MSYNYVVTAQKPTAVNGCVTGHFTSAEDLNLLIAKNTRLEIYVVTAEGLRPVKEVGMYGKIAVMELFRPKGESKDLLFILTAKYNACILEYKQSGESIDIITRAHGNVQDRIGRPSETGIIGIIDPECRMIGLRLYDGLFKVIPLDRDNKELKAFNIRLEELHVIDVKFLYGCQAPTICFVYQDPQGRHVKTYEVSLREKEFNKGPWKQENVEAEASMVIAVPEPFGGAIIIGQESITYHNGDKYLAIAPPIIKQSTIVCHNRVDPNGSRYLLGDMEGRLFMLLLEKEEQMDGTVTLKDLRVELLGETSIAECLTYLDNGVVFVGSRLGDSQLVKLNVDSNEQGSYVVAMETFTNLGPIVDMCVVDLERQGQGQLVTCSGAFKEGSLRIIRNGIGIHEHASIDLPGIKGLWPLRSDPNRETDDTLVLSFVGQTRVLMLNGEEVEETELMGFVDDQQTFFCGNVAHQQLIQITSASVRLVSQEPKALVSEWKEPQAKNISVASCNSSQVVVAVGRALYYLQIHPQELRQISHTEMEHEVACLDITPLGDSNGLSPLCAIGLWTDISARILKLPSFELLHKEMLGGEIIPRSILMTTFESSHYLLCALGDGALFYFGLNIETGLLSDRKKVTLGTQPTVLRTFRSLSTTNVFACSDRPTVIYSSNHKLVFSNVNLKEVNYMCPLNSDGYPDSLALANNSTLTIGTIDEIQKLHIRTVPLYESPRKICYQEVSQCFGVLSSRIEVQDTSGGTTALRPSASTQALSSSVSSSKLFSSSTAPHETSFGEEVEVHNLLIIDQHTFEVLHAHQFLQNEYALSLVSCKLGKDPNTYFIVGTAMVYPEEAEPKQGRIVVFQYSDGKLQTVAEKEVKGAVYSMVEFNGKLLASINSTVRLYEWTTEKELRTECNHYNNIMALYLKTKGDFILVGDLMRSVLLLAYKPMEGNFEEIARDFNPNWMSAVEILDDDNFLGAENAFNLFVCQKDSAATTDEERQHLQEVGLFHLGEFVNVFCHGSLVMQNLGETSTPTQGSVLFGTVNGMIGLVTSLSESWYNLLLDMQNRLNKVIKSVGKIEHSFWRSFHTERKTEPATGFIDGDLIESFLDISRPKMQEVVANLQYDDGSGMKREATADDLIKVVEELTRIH
Chain of CRBN/DDB1 (Q96SW2 whole entry): as the sequence (Q96SW2 whole entry) above
Chain of CRBN/DDB1 (Q16531 whole entry partner): as the sequence (Q16531 whole entry partner) above

At CK1α, `CC1CN(c2ccc3c(c2)CN(C2CCC(=O)NC2=O)C3=O)C(=O)N1c1ccc(C(F)(F)F)nc1` (stereo not shown) [Compound 121, 3-(5-(4-methyl-2-oxo-3-(6-(trifluoromethyl)pyridin-3-yl)imidazolidin-1-yl)-1-oxoisoindolin-2-yl)piperidine-2,6-dione] gave a DC50 of at most 0.1 µM. In addition, the IC50 at CRBN/DDB1 was in the range of 100 to 1000 nM.
In turn, `Cc1ccc(N2C(=O)N(c3ccc4c(c3)CN(C3CCC(=O)NC3=O)C4=O)CC2C)cn1` (stereo not shown) [Compound 122, 3-(5-(4-methyl-3-(6-methylpyridin-3-yl)-2-oxoimidazolidin-1-yl)-1-oxoisoindolin-2-yl)piperidine-2,6-dione] showed a DC50 on CK1α of 0.1 to 1 µM. Further, the IC50 at CRBN/DDB1 is over 1000 nM.
In the same order, the values of `O=C1CCC(N2Cc3cc(N4CCN(c5ccc6c(c5)OCC6)C4=O)ccc3C2=O)C(=O)N1` (stereo not shown) [Compound 127, 3-(5-(3-(2,3-dihydrobenzofuran-6-yl)-2-oxoimidazolidin-1-yl)-1-oxoisoindolin-2-yl)piperidine-2,6-dione] are at most 0.1 µM and over 1000 nM.
`COCc1ccc(N2CCN(c3ccc4c(c3)CN(C3CCC(=O)NC3=O)C4=O)C2=O)cc1` (stereo not shown) [Compound 128, 3-(5-(3-(4-(methoxymethyl)phenyl)-2-oxoimidazolidin-1-yl)-1-oxoisoindolin-2-yl)piperidine-2,6-dione] registered a DC50 at CK1α of at most 0.1 µM. On CRBN/DDB1, the IC50 is 100 to 1000 nM.
On the same counts, the results for `O=C1CCC(N2Cc3cc(N4CCN(c5ccc(C(F)F)cc5)C4=O)ccc3C2=O)C(=O)N1` (stereo not shown) [Compound 129, 3-(5-(3-(4-(difluoromethyl)phenyl)-2-oxoimidazolidin-1-yl)-1-oxoisoindolin-2-yl)piperidine-2,6-dione] are at most 0.1 µM and 100 to 1000 nM.
On the same counts, the results for `Cc1ccc(N2C(=O)N(c3ccc4c(c3)CN(C3CCC(=O)NC3=O)C4=O)C[C@H]2C)cc1` (stereo partly drawn) [Compound 130, 3-(5-((R)-4-methyl-2-oxo-3-(p-tolyl)imidazolidin-1-yl)-1-oxoisoindolin-2-yl) piperidine-2,6-dione] are at most 0.1 µM and 100 to 1000 nM.
At CK1α, `O=C1CCC(N2Cc3cc(N4CCN(c5ccc(C6CCC6)cc5)C4=O)ccc3C2=O)C(=O)N1` (stereo not shown) [Compound 131, 3-(5-(3-(4-cyclobutylphenyl)-2-oxoimidazolidin-1-yl)-1-oxoisoindolin-2-yl)piperidine-2,6-dione] returned a DC50 of at most 0.1 µM. Besides, the IC50 on CRBN/DDB1 was over 1000 nM.
On the same counts, the results for `C[C@@H]1CN(c2ccc3c(c2)CN(C2CCC(=O)NC2=O)C3=O)C(=O)N1c1cnccn1` (stereo partly drawn) [Compound 132, 3-(5-((R)-4-methyl-2-oxo-3-(pyrazin-2-yl)imidazolidin-1-yl)-1-oxoisoindolin-2-yl)piperidine-2,6-dione] are at most 0.1 µM and 100 to 1000 nM.
On CK1α, `COC1(c2ccc(N3CCN(c4ccc5c(c4)CN(C4CCC(=O)NC4=O)C5=O)C3=O)cc2)CC1` (stereo not shown) [Compound 133, 3-(5-(3-(4-(1-methoxycyclopropyl)phenyl)-2-oxoimidazolidin-1-yl)-1-oxoisoindolin-2-yl)piperidine-2,6-dione] had a DC50 of at most 0.1 µM. The IC50 on CRBN/DDB1 is 100 to 1000 nM.
With `COCc1ccc(N2C(=O)N(c3ccc4c(c3)CN(C3CCC(=O)NC3=O)C4=O)C[C@H]2C)cc1` (stereo partly drawn) [Compound 134, 3-(5-((R)-3-(4-(methoxymethyl)phenyl)-4-methyl-2-oxoimidazolidin-1-yl)-1-oxoisoindolin-2-yl)piperidine-2,6-dione], the DC50 on CK1α is at most 0.1 µM. Besides, the IC50 at CRBN/DDB1 was 100 to 1000 nM.
Consider `CC1(c2ccc(N3CCN(c4ccc5c(c4)CN(C4CCC(=O)NC4=O)C5=O)C3=O)cc2)CC1` (stereo not shown) [Compound 135, 3-(5-(3-(4-(1-methylcyclopropyl)phenyl)-2-oxoimidazolidin-1-yl)-1-oxoisoindolin-2-yl)piperidine-2,6-dione], for which the DC50 at CK1α is at most 0.1 µM. The IC50 on CRBN/DDB1 is over 1000 nM.
Compound `COCc1cccc(N2CCN(c3ccc4c(c3)CN(C3CCC(=O)NC3=O)C4=O)C2=O)c1` (stereo not shown) [Compound 136, 3-(5-(3-(3-(methoxymethyl)phenyl)-2-oxoimidazolidin-1-yl)-1-oxoisoindolin-2-yl)piperidine-2,6-dione] returned a DC50 on CK1α of at most 0.1 µM. For the same compound, the IC50 at CRBN/DDB1 was in the range of 100 to 1000 nM.
In the same order, the values of `C[C@@H]1CN(c2ccc3c(c2)CN(C2CCC(=O)NC2=O)C3=O)C(=O)N1C1CCCC1` (stereo partly drawn) [Compound 138, 3-(5-((R)-3-cyclopentyl-4-methyl-2-oxoimidazolidin-1-yl)-1-oxoisoindolin-2-yl)piperidine-2,6-dione] are at most 0.1 µM and 100 to 1000 nM.
In the same order, the values of `CO[C@@H](C)c1cccc(N2CCN(c3ccc4c(c3)CN(C3CCC(=O)NC3=O)C4=O)C2=O)c1` (stereo partly drawn) [Compound 139, 3-(5-(3-(3-((S)-1-methoxyethyl)phenyl)-2-oxoimidazolidin-1-yl)-1-oxoisoindolin-2-yl)piperidine-2,6-dione] are at most 0.1 µM and 100 to 1000 nM.
In the same order, the values of `O=C1CCC(N2Cc3cc(N4CCN(c5cccc6c5CCO6)C4=O)ccc3C2=O)C(=O)N1` (stereo not shown) [Compound 140, 3-(5-(3-(2,3-dihydrobenzofuran-4-yl)-2-oxoimidazolidin-1-yl)-1-oxoisoindolin-2-yl)piperidine-2,6-dione] are at most 0.1 µM and 100 to 1000 nM.
On CK1α, `C[C@@H]1CN(c2ccc3c(c2)CN(C2CCC(=O)NC2=O)C3=O)C(=O)N1C1CCC1` (stereo partly drawn) [Compound 142, 3-(5-((R)-3-cyclobutyl-4-methyl-2-oxoimidazolidin-1-yl)-1-oxoisoindolin-2-yl)piperidine-2,6-dione] came in with a DC50 of at most 0.1 µM. Moreover, at CRBN/DDB1, the IC50 lay within 100 to 1000 nM.
`COC[C@@H]1CN(c2ccc3c(c2)CN(C2CCC(=O)NC2=O)C3=O)C(=O)N1c1ccc(C)cc1` (stereo partly drawn) [Compound 143, 3-(5-((S)-4-(methoxymethyl)-2-oxo-3-(p-tolyl)imidazolidin-1-yl)-1-oxoisoindolin-2-yl)piperidine-2,6-dione]: at CK1α, the DC50 is at most 0.1 µM. Moreover, the IC50 on CRBN/DDB1 lay in the range of 100 to 1000 nM.
